Laboratory results: patent US20220017778A1, “Methods of Treating Inorganic Surfaces” (ZYDEX INC., priority 2018, published 2022)

Experiment: Solubility / dispersibility of the product in water
Type: physicochemical
Conditions: general statement in the description
Experimental: A two liter, three necked flask equipped with a condenser, stirrer, thermometer, and distillation head was charged with (i) 136 grams of methyltrimethoxysilane, (ii) 186 grams of monoehtylene glycol, and (iii) 0.6 grams of tetra isopropyltitanate was added into the mixture to facilitate a transesterification reaction to provide a non-ionic water soluble organosilane. This mixture was heated to 120° C. for two hours, during which 92 grams of methanol were recovered after which the reaction was deemed complete.
A two liter, three necked flask equipped with a condenser, stirrer, thermometer, and distillation head was charged with (i) 164 grams of methyltrimethoxysilane, (ii) 186 grams of monoehtylene glycol, and (iii) 0.6 grams of tetra isopropyltitanate was added into the mixture to facilitate a transesterification reaction to provide a non-ionic water soluble organosilane. This mixture was heated to 120° C. for two hours, during which 95 grams of methanol were recovered after which the reaction was deemed complete.

## CO[Si](C)(OC)OC [methyltrimethoxysilane (MTMS), methyltrimethoxysilane]
  water solubility, in words (description): insoluble in water
